System: ovariectomized ICR female mice
Test: Bone tissue analysis by micro computed tomography: trabecular bone volume ratio in the osteoporosis mouse model
Type: in vivo
Details: oral gavage for 28 days
Method: Preparation of dead bacteria: 1 μl Lactobacillus paracasei strain GMNL-653 and the Lactobacillus salivarius strain GMNL-678 frozen viral was inoculated to 1 ml of MRS broth, respectively, and aerobically incubated at 37° C. for 20 hours (first activation). The next day, adding 15 μl culture solution (first activation) into 1.5 ml of MRS broth, and then and aerobically incubated at 37° C. for 20 hours (secondary activation) Estimating the bacteria number by using OD 600 nm to adjust the bacteria concentration to 4.1×10^8 CFU/ml, and heat-killed bacteria was carried by autoclaving at 121° C. for 15 minutes. […]
Micro computed tomography (SkyScan 1076, Kontizh, Belgium, with resolution of 18 μm) was taken of the backbone of the right femur far from the end was taken, and the trabecular bone volume ratio (i.e. bone volume/tissue volume; BV/TV) was analyzed by a software. The analyzed position was selected to include the area of 100 pieces under the growth plate excluding cortical bone. […] The obtained data in the experiments were analyzed with two-way analysis of variance, and the T-test statistical analysis. […] After comparisons, the abovementioned groups were analyzed statistically and noted by different marks to represent the statistically significant differences (* represents p<0.05; ** represents p<0.01 See Table 3 and Table 4, showing the results of the experiment 1.

## NCCCC(O)(P(=O)(O)O)P(=O)(O)O [Alendronate]
  BV/TV compared with the disease group (OVX+H2O), in words: higher than the disease group

Reference: patent publication US20180256654A1, “USE OF LACTOBACILLUS PARACASEI STRAIN GMNL-653 TO PREPARE COMPOSITION FOR RESISTING BONE LOSS” (GENMONT BIOTECH INC., priority 2017, published 2018)
